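In this assay, cells in 96-well plates receive the compound at five concentrations for 48 hours. Endpoints are linearly interpolated between the surrounding concentrations. The concentration for full growth arrest is given as TGI.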 Where a SMILES comes first, the peptide text is derived from it. The star is where a group is joined. Boc = CC(C)(C)OC(=O)*
Legend:
Assay in all cases: NCI anticancer screen, dose series, 48 h
SK-MEL-2 melanoma = test system: SK-MEL-2 melanoma
HOP-92 NSCLC = test system: HOP-92 NSCLC
M14 melanoma = test system: M14 melanoma
MALME-3M melanoma = test system: MALME-3M melanoma
SR leukemia = test system: SR leukemia
M19-MEL melanoma = test system: M19-MEL melanoma
NCI-H522 lung = test system: NCI-H522 lung
LOX IMVI melanoma = test system: LOX IMVI melanoma
DMS 114 small cell lung = test system: DMS 114 small cell lung
SK-OV-3 ovarian = test system: SK-OV-3 ovarian
HOP-62 NSCLC = test system: HOP-62 NSCLC
RXF-631 renal = test system: RXF-631 renal
A498 renal = test system: A498 renal
XF 498 CNS = test system: XF 498 CNS
K-562 leukemia = test system: K-562 leukemia
SF-539 CNS = test system: SF-539 CNS
UO-31 renal = test system: UO-31 renal
NCI-H226 lung = test system: NCI-H226 lung
CCRF-CEM leukemia = test system: CCRF-CEM leukemia
NCI-H23 lung = test system: NCI-H23 lung
HCT-116 colon = test system: HCT-116 colon
SK-MEL-28 melanoma = test system: SK-MEL-28 melanoma
786-0 renal = test system: 786-0 renal
COLO 205 colon = test system: COLO 205 colon
DLD-1 colon = test system: DLD-1 colon
IGROV1 ovarian = test system: IGROV1 ovarian
SNB-78 CNS = test system: SNB-78 CNS
OVCAR-4 ovarian = test system: OVCAR-4 ovarian
SNB-75 CNS = test system: SNB-75 CNS
CAKI-1 renal = test system: CAKI-1 renal
RPMI-8226 leukemia = test system: RPMI-8226 leukemia
LXFL 529 NSCLC = test system: LXFL 529 NSCLC
SN12C renal = test system: SN12C renal
MOLT-4 leukemia = test system: MOLT-4 leukemia
SF-268 CNS = test system: SF-268 CNS
UACC-62 melanoma = test system: UACC-62 melanoma
DMS 273 small cell lung = test system: DMS 273 small cell lung
HCC-2998 colon = test system: HCC-2998 colon
NCI-H460 lung = test system: NCI-H460 lung
HL-60(TB) leukemia = test system: HL-60(TB) leukemia
SW-620 colon = test system: SW-620 colon
HCT-15 colon = test system: HCT-15 colon
EKVX NSCLC = test system: EKVX NSCLC
UACC-257 melanoma = test system: UACC-257 melanoma
KM20L2 colon = test system: KM20L2 colon
A549 NSCLC = test system: A549 NSCLC
SK-MEL-5 melanoma = test system: SK-MEL-5 melanoma
HT29 colon = test system: HT29 colon
OVCAR-8 ovarian = test system: OVCAR-8 ovarian
SNB-19 CNS = test system: SNB-19 CNS
TK-10 renal = test system: TK-10 renal
RXF 393 renal = test system: RXF 393 renal

CSCCC(NC(=O)C(CC(C)C)NC(=O)C1CCCN1C(=O)C(Cc1ccccc1)NC(=O)C(Cc1ccccc1)NC(=O)C(CCC(=O)O)NC(=O)OC(C)(C)C)C(N)=O (stereo not given) (Boc-EFFPLM-NH2; configuration not given here)
TGI (SK-MEL-2 melanoma): > 100 µM | TGI (HOP-92 NSCLC): > 100 µM | TGI (M14 melanoma): > 100 µM | TGI (MALME-3M melanoma): > 100 µM | TGI (SR leukemia): > 100 µM | TGI (M19-MEL melanoma): > 100 µM | TGI (NCI-H522 lung): > 100 µM | TGI (LOX IMVI melanoma): > 100 µM | TGI (DMS 114 small cell lung): > 100 µM | TGI (SK-OV-3 ovarian): > 100 µM | TGI (HOP-62 NSCLC): > 100 µM | TGI (RXF-631 renal): > 100 µM | TGI (A498 renal): > 100 µM | TGI (XF 498 CNS): > 100 µM | TGI (K-562 leukemia): > 100 µM | TGI (SF-539 CNS): > 100 µM | TGI (UO-31 renal): > 100 µM | TGI (NCI-H226 lung): > 100 µM | TGI (CCRF-CEM leukemia): > 100 µM | TGI (NCI-H23 lung): > 100 µM | TGI (HCT-116 colon): > 100 µM | TGI (SK-MEL-28 melanoma): > 100 µM | TGI (786-0 renal): > 100 µM | TGI (COLO 205 colon): > 100 µM | TGI (DLD-1 colon): > 100 µM | TGI (IGROV1 ovarian): > 100 µM | TGI (SNB-78 CNS): > 100 µM | TGI (OVCAR-4 ovarian): > 100 µM | TGI (SNB-75 CNS): > 100 µM | TGI (CAKI-1 renal): > 100 µM | TGI (RPMI-8226 leukemia): > 100 µM | TGI (LXFL 529 NSCLC): > 100 µM | TGI (SN12C renal): > 100 µM | TGI (MOLT-4 leukemia): > 100 µM | TGI (SF-268 CNS): > 100 µM | TGI (UACC-62 melanoma): > 100 µM | TGI (DMS 273 small cell lung): > 100 µM | TGI (HCC-2998 colon): > 100 µM | TGI (NCI-H460 lung): > 100 µM | TGI (HL-60(TB) leukemia): > 100 µM

COC1=CC(=O)C(Br)=CC1=O
TGI (SK-MEL-2 melanoma): 45.7 µM | TGI (SW-620 colon): 54.9 µM | TGI (HOP-92 NSCLC): 29.8 µM | TGI (M14 melanoma): 33.5 µM | TGI (MALME-3M melanoma): 35.6 µM | TGI (HCT-15 colon): 47 µM | TGI (M19-MEL melanoma): 32 µM | TGI (NCI-H522 lung): 23.9 µM | TGI (LOX IMVI melanoma): 34.3 µM | TGI (EKVX NSCLC): 44.8 µM | TGI (DMS 114 small cell lung): 35.5 µM | TGI (UACC-257 melanoma): 31.1 µM | TGI (SK-OV-3 ovarian): > 100 µM | TGI (KM20L2 colon): > 100 µM | TGI (HOP-62 NSCLC): > 100 µM | TGI (RXF-631 renal): 99.2 µM | TGI (XF 498 CNS): 31.5 µM | TGI (A549 NSCLC): > 100 µM | TGI (SK-MEL-5 melanoma): 34.5 µM | TGI (K-562 leukemia): 9.1 µM | TGI (UO-31 renal): 31.7 µM | TGI (CCRF-CEM leukemia): 8.84 µM | TGI (NCI-H23 lung): 40.8 µM | TGI (SK-MEL-28 melanoma): 34 µM | TGI (786-0 renal): 32.9 µM | TGI (COLO 205 colon): 31 µM | TGI (DLD-1 colon): > 100 µM | TGI (IGROV1 ovarian): 31.1 µM | TGI (OVCAR-4 ovarian): 32.1 µM | TGI (SNB-75 CNS): 29.1 µM | TGI (CAKI-1 renal): 32.4 µM | TGI (HT29 colon): 35.6 µM | TGI (RPMI-8226 leukemia): 50.6 µM | TGI (OVCAR-8 ovarian): 65.8 µM | TGI (SNB-19 CNS): 32.9 µM | TGI (LXFL 529 NSCLC): 31.2 µM | TGI (SN12C renal): 33.3 µM | TGI (MOLT-4 leukemia): 10.4 µM | TGI (SF-268 CNS): 33.8 µM | TGI (UACC-62 melanoma): 32.1 µM | TGI (TK-10 renal): 35.8 µM | TGI (HCC-2998 colon): > 100 µM | TGI (NCI-H460 lung): > 100 µM | TGI (HL-60(TB) leukemia): 23.6 µM | TGI (RXF 393 renal): 32.3 µM
